Columns and labels:
[1] = tested on: MDA-MB-231 human metastatic breast cancer cells; assay: Anti-tumor activity in xenograft mice; type: in vivo; conditions: Tax 10 mg/kg I.V. once/week, CTR 30 mg/kg I.P. every 3 days, or Tax 5 + CTR 15 mg/kg once/week
Method: Five-week old female CD-1 and ATH490 (strain code 490) athymic nude mice were purchased from Charles River (Quebec, Canada). The MDA-MB-231 human metastatic breast cancer cells were obtained from the American Tissue Culture Collection (ATCC, Manassas, Va., USA). Cells were maintained under humidified conditions at 37° C. and 5% CO2 in DMEM high glucose medium (ATCC) supplemented with 10% fetal bovine serum and antibiotics.
For paclitaxel treatments, 40 mg/ml stock solution of paclitaxel (Sigma, MO) was prepared in DMSO. Just before administration to mice, the paclitaxel stock solution was diluted ten-fold in a buffer containing 10% DMSO, 12.5% Cremophor, 12.5% ethanol, and 65% saline-based diluent (0.9% sodium chloride, 5% polyethylene glycol, and 0.5% tween-80) which is defined as vehicle (Huang et al., 2006). Alanine transaminase (ALT, SUP6001-c)/Aspartate transaminase (AST, SUP6002-c) color endpoint assay kits were purchased from ID Labs Biotechnology (London, Ontario, Canada). Elevation of ALT and AST levels in serum samples was used as an indicator of liver damage/injury.
To determine the anti-tumor activity of CTR compounds in animals, a xenograft model of human breast cancer cells in athymic nude mice was established. Exponentially growing MDA-MB-231 metastatic breast cancer cells were harvested and counted for inoculation into mice. Each mouse was subcutaneously injected at the flank with 10×10^6 cells in 0.2 ml ice cold 1×PBS. When tumor size reached 4-5 mm in diameter (n=4-5 per group), mice were randomly assigned into several groups as described herein.
Animals were monitored for food and water consumption every day, and their body weights and tumor volumes were measured twice per week. Tumor volumes were measured with a digital caliper and were determined by using the following formula: ½ length×width^2. Blood samples were collected via cardiac puncture and processed further for ALT and AST measurements. The animals were then immediately euthanized by carbon dioxide. Tumors and vital organs (spleen, kidney, liver and lung) were collected and fixed in 10% buffered formalin at 4° C. overnight before being processed for paraffin embedding. The paraffin-embedded blocks were then cut into 4-5 μm thick sections. Each section of tumors and organs was stained with hematoxylin and eosin (H&E).

MDA-MB231TaxR = assay: SRB-based cytotoxicity assay, single and combination with paclitaxel; type: cell-based; conditions: for killing of MDA-MB231TaxR compared with parental MDA-MB231: TaxR selected in 100.0 nM paclitaxel
Method: All of the cell lines used were purchased from ATCC and cultured in RPMI-1640 supplemented with 10% fetal bovine serum and antibiotics (100 units penicillin/100 μg/ml streptomycin), unless stated otherwise. 1845B5 and MCF-10A non-cancer breast cell lines were cultured in DME/F12 medium supplemented with 10% fetal bovine serum, antibiotics and growth factors. […] The human small cell lung carcinoma H69 cell line and its multidrug-resistant MRP1-overexpressing isogenic H69AR cell line were purchased from ATCC. […] H69 cells grow as large multi-cell aggregates, making it difficult to accurately count cell numbers. […] The IL-6 dependent bortezomib-resistant ANBL6-BR cell line was further supplemented with 1 ng/ml of IL-6. The MCF10AT1 and MCF10CA1a cell lines are isogenic to the MCF10A cell line, and obtained from Dr. Valerie Weaver at the Center for Bioengineering and Tissue Regeneration, UCSF, CA, USA. MCF10AT1 is a premalignant cell line generated by transforming MCF10A with c-Ha-Ras; and MCF10CA1a was isolated by selecting malignant cells after MCF10AT1 cells were engrafted into mice (Liu & Lin 2004; […] et al. 2009). […] The drug-resistant cells were cultured in the absence of drug for at least one passage before carrying out experiments. All cells were maintained in a humidified incubator at 37° C. […] Cell line authentication was performed using short tandem repeat (STR) profiling. For (anti)proliferation assays, 4,000-5,000 cells/well of the 96-well clustered dish were incubated for 16 hours, as described previously (Hu et al., 2008; Skehan et al., 1990). […] Some wells were treated with 100 μl of 10% trichloroacetic acid (TCA) as a negative control and sham (medium with dimethyl sulfoxide; DMSO) treated cells were used as a positive control. […] TCA was removed and cells were washed with cold tap water, and plate was air-dried, followed by addition of 50 μl of 0.4% SRB staining solution to each well. After 30 minutes incubation, SRB staining solution was removed. Cells were washed with 1% acetic acid solution, and then washed with tap water to remove unbound staining solution, followed by air-drying. 200 μl of 10 mM (pH10.5) trizma base buffer was added to each well to solubilise macromolecules. […] Cell growth (inhibition) was calculated by the following formula: % cells proliferation=[(AT-CT)/(ST-CT)]×100 wherein AT=absorbance of treated cells, CT=absorbance of negative control cells, and ST=absorbance of sham treated cells. […] The combinational index (CI) was calculated as described previously (Chou 2006). […] CI values were determined from four independent experiments.

[2] = Liver toxicity by AST and ALT; type: in vivo, mice; conditions: serum
Method: For paclitaxel treatments, 40 mg/ml stock solution of paclitaxel (Sigma, MO) was prepared in DMSO. […] Alanine transaminase (ALT, SUP6001-c)/Aspartate transaminase (AST, SUP6002-c) color endpoint assay kits were purchased from ID Labs Biotechnology (London, Ontario, Canada). Elevation of ALT and AST levels in serum samples was used as an indicator of liver damage/injury. Animals were monitored for food and water consumption every day, and their body weights and tumor volumes were measured twice per week. […] Blood samples were collected via cardiac puncture and processed further for ALT and AST measurements. The animals were then immediately euthanized by carbon dioxide. […] The paraffin-embedded blocks were then cut into 4-5 μm thick sections. Each section of tumors and organs was stained with hematoxylin and eosin (H&E). Changes in body weight, hemoglobin (Hb) and the amount and ratio of alanine transaminase (ALT)/aspartate transaminase (AST) were used to measure toxic effects. In addition, vital organs (liver, spleen, kidney and lung) were analyzed by […] after they were harvested, fixed, processed, paraffin-embedded, sectioned, and stained as described above.

[3] = Paclitaxel 10 mg/kg, CTR 30 mg/kg, or Paclitaxel (5) + CTR (15)

SMILES	tumor size (volume) ([1]; Day 0) [mm^3]	tumor size (volume) ([1]; Day 6) [mm^3]	tumor size (volume) ([1]; Day 14) [mm^3]	tumor size (volume) ([1]; Day 17) [mm^3]	tumor size (volume) ([1]; Day 20) [mm^3]	tumor size (volume) ([1]; Day 24) [mm^3]	tumor size (volume) ([1]; Day 27) [mm^3]	tumor size (volume) ([1]; Day 30) [mm^3]	killing of MDA-MB231TaxR compared with parental MDA-MB231 (MDA-MB231TaxR)	ALT (IU/L) ([2]; CTR 20 mg/kg)	AST (IU/L) ([2]; CTR 20 mg/kg)	ALT (IU/L) [2, 3] [IU/L]	AST (IU/L) [2, 3] [IU/L]	Cell survival rate (MDA-MB231TaxR; single agent 0.3 μM)	Cell survival rate (MDA-MB231TaxR; single agent 23.4 nM)	Cell survival rate (MDA-MB231TaxR; single agent 18.75 nM)	Cell survival rate (MDA-MB231TaxR; single agent 37.5 nM)	Cell survival rate (MDA-MB231TaxR; single agent 75.0 nM)	Cell survival rate (MDA-MB231TaxR; single agent 150 nM)	Cell survival rate (MDA-MB231TaxR; single agent 300 nM)
COc1ccccc1C(=O)/C=C/c1cc2ccccc2[nH]c1=O [CTR-17, (E)-3-(3-(2-Methoxyphenyl)-3-oxoprop-1-enyl)quinolin-2(1H)-one]	86.71	63.99	90.07	128.36	134.76	160.86	189.45	209.84	to the same degree as the parental MDA-MB231 cells	63.59 ± 9.73	101.00 ± 10.19	64.67 ± 5.26	114.13 ± 6.36	–	–	–	–	–	–	–
COc1ccc2[nH]c(=O)c(/C=C/C(=O)c3ccccc3OC)cc2c1 [CTR-20, (E)-6-Methoxy-3-(3-(2-methoxyphenyl)-3-oxoprop-1-enyl) quinolin-2(1H)-one]	92.51	69.89	84.64	97.11	97.22	106.26	124.88	140.63	to the same degree as the parental MDA-MB231 cells	56.77 ± 5.34	119.19 ± 4.03	50.50 ± 9.96	118.22 ± 17.00	63.7 ± 2.52	–	–	–	–	–	–
COc1ccccc1C(=O)/C=C/c1cc2cccc(OC)c2[nH]c1=O [CTR-21, (E)-8-methoxy-3-(3-(2-methoxyphenyl)-3-oxoprop-1-enyl) quinolin-2(1H)-one]	–	–	–	–	–	–	–	–	to the same degree as the parental MDA-MB231 cells	–	–	–	–	–	52.10 ± 3.71	–	–	–	–	–
CCOc1ccccc1C(=O)/C=C/c1cc2ccccc2[nH]c1=O [CTR-32, (E)-3-(3-(2-ethoxyphenyl)-3-oxoprop-1-enyl)quinolin-2(1H)-one]	–	–	–	–	–	–	–	–	to the same degree as the parental MDA-MB231 cells	–	–	–	–	–	53.07 ± 6.50	–	–	–	–	–
CC(=O)O[C@H]1C(=O)[C@@]2(C)[C@H]([C@H](OC(=O)c3ccccc3)[C@]3(O)C[C@H](OC(=O)[C@H](O)[C@@H](NC(=O)c4ccccc4)c4ccccc4)C(C)=C1C3(C)C)[C@]1(OC(C)=O)CO[C@@H]1C[C@@H]2O [Paclitaxel, reference compound]	91.84	90.11	94.66	92.33	81.66	95.61	139.41	170.36	–	–	–	52.02 ± 2.59	111.14 ± 13.42	–	–	95.84 ± 1.86	90.28 ± 3.58	90.98 ± 4.49	82.41 ± 5.00	57.75 ± 3.78
